Assay results published in US11413278B2, “Compounds and methods for promoting stress resistance” (priority 2015, dated 2022).
Like-named read-outs stand apart in the source and are kept apart here.

Columns and labels:
human PARP1 = target: T1, human PARP1 (Homo sapiens, UniProt P09874); test: PARP inhibitor assay (HT Fluorescent Homogeneous PARP Inhibition Assay Kit); format: biochemical; details: score
T1 construct: purchased Trevigen
Summary of the method: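 Human PARP1 with NAD and activated DNA, compounds at 10 μM final, 30 min at room temperature in dark. Resazurin/diaphorase cycling mix then added for 1 hr in dark before stop buffer; fluorescent homogeneous kit read-out.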

WI-38 cells [1] = test: CdCl2 (cadmium) resistance assay; format: cell-based, human; details: for fold induction at 10 µM: Homo sapiens, 12 h, normalized ATP measurement; for Assay 4: H2O2- & Cd-resistant / Assay 2: Cadmium-resistant: YES/NO; for Assay 2: Cadmium-resistant: * indicates partial
Summary of the method: (§1)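 WI-38 cells were given compounds at five final concentrations (0.25–20 μM) in triplicate, followed by cadmium or MMS for 12 h. For MMS, medium was switched from OptiMEM+10% FBS to serum-free DMEM+2% BSA when compounds were added, 24 h before stressor. Two independent assays were run, analysed by global variance t-test.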

WI-38 cells [2] = test: MMS resistance assay; format: cell-based, human; details: for fold induction at 10 µM: Homo sapiens, 12 h, normalized ATP measurement; for Assay 3: MMS-resistant / Assay 5: Triple resistant: YES/NO; for Assay 3: MMS-resistant: * indicates partial; for Assay 5: Triple resistant: H2O2, cadmium and MMS
Summary of the method: as §1

C. elegans = C. elegans lifespan assays (liquid and plate); format: in vivo, Caenorhabditis elegans; details: for ILS at 60 µM / ILS at 66 µM: Caenorhabditis elegans; for O = Life span- extending scores in worms: score scale 0 to 2, 4 to 6 independent trials; for M = Lifespan-extending scores in worms: summary score
[3] = test system: phosphorylated γH2A.X and TP53BP1; test: DNA damage marker analysis (immuno-staining); details: for activity at 10 µM: Homo sapiens, WI-38, 24 h
Summary of the method: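 WI-38 cells were cultured 24 h, then treated with compounds for 24 h; H2O2 (700 μM, 3 h) and doxorubicin (300 nM, 24 h) served as DNA-damage controls. After fixation, cells were immunostained for phospho-γH2A.X (Ser-139) and phospho-TP53BP1 (Ser-1778), counterstained with DAPI, and imaged by automated high-content microscopy.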

[4] = Exp. 1, WI-38 cells, read-out: Exp. 1, under Cd2Cl2 stress treatment, at 10 uM (fold change)
[5] = Exp. 2, WI-38 cells, read-out: Exp. 2, under Cd2Cl2 stress treatment, at 10 uM (fold change)
[6] = WI-38 cells, 10 μM, both stressors
[7] = score in summary of 38 core set hits
[8] = Exp. 1, WI-38 cells, read-out: Exp. 1, under MMS stress treatment, at 10 uM (fold change)
[9] = Exp. 2, WI-38 cells, read-out: Exp. 2, under MMS stress treatment, at 10 uM (fold change)
[10] = in liquid, wild type, with FuDR, 1.0 × 10^9 bacteria/ml, read-out: relative change of mean lifespan vs control, Trial 1
[11] = in liquid, wild type, with FuDR, 2.5 × 10^9 bacteria/ml, read-out: relative change of mean lifespan vs control, Trial 2
[12] = on plate, CF512 temperature-sensitive sterile animals, without FuDR, 2.0 × 10^10 bacteria/ml, read-out: relative change of mean lifespan vs control, Trial 3
[13] = Assay 2(z), 1.0 × 10^9 bacteria/ml, wild type + FuDR (2012 July), read-out: Lifespan assay in liquid
[14] = Assay 3(aa), 2.5 × 10^9 bacteria/ml, wild type + FuDR, read-out: Lifespan assay in liquid
[15] = Assay 4(ab), 2.0 × 10^10 bacteria/ml, CF512 worms, no FuDR, read-out: Lifespan assay on plates
[16] = read-out: Experiment 1, H2A.X-P DNA damage foci staining (no H2O2 stress treatment), at 10 uM
[17] = read-out: Experiment 2, H2A.X-P DNA damage foci staining (no H2O2 stress treatment), at 10 uM
[18] = read-out: Experiment 2, H2A.X-P DNA damage foci staining (under H2O2 stress treatment), at 10 uM
[19] = read-out: Experiment 2, TP53BP1-P DNA damage foci staining (no H2O2 stress treatment), at 10 uM
[20] = read-out: Experiment 2, TP53BP1-P DNA damage foci staining (under H2O2 stress treatment), at 10 uM
[21] = negative point, cultured human cells

T1 sequence (P09874 whole entry): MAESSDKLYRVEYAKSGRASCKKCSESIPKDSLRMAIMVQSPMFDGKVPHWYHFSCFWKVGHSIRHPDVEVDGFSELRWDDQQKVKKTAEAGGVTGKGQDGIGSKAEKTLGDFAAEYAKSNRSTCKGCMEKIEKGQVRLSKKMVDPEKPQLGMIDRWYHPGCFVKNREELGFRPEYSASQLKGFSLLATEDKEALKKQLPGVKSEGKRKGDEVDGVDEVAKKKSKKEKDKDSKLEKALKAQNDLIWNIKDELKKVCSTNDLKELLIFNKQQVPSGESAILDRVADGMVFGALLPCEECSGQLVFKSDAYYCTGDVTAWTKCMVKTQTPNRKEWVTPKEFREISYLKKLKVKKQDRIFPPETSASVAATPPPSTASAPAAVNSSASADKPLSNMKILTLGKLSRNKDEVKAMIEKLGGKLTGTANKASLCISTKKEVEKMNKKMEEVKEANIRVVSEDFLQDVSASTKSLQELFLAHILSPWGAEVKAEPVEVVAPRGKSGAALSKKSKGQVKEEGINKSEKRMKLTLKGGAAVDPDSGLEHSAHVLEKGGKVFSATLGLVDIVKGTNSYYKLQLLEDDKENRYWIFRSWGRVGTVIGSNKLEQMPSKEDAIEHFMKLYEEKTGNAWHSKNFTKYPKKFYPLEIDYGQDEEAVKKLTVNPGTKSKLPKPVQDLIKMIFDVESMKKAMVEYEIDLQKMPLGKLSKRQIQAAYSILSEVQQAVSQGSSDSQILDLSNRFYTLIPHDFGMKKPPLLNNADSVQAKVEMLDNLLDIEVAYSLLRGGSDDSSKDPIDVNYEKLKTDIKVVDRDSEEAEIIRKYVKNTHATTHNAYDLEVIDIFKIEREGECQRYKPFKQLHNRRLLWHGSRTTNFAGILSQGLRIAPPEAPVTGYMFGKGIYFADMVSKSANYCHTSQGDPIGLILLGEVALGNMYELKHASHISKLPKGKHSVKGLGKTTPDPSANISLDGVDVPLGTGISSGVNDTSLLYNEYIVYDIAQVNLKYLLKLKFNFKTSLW

Compound: COC(=O)CCc1sc2c(c1[N+](=O)[O-])NC(=O)CCC2 [O20]
- L = PARP inhibition (human PARP1): 0
- CdCl2-resistant (WI-38 cells [1]): YES
- H2O2- & CdCl2-resistant (WI-38 cells [1]): YES
- fold induction at 10 µM (WI-38 cells [1]; [4]): 6.37
- fold induction at 10 µM (WI-38 cells [1]; [5]): 4
- CdCl2-resistant (WI-38 cells [1]; WI-38 cells, 10 μM): YES
- H2O2- & CdCl2-resistant (WI-38 cells [1]; [6]): YES
- Assay 4: H2O2- & Cd-resistant (WI-38 cells [1]): YES
- Assay 2: Cadmium-resistant (WI-38 cells [1]): YES
- A = Cadmium resistant (WI-38 cells [1]; [7]): 1
- A = Cadmium resistant (WI-38 cells [1]; summary score): 1
- C = H2O2- & Cd-resistant (WI-38 cells [1]; summary score): 1
- fold induction at 10 µM (WI-38 cells [2]; [8]): 2.17
- fold induction at 10 µM (WI-38 cells [2]; [9]): 1.46
- Assay 3: MMS-resistant (WI-38 cells [2]): YES
- Assay 5: Triple resistant (WI-38 cells [2]): YES
- B = MMS resistant (WI-38 cells [2]; [7]): 0
- B = MMS resistant (WI-38 cells [2]; summary score): 1
- D = Triple resistant (WI-38 cells [2]; summary score): 2
- ILS at 60 µM (C. elegans; [10]): 18.8%
- ILS at 60 µM (C. elegans; [11]): 3.4%
- ILS at 60 µM (C. elegans; [12]): 11.3%
- ILS at 66 µM (C. elegans; [13]): 18.8%
- ILS at 66 µM (C. elegans; [14]): 3.4%
- ILS at 66 µM (C. elegans; [15]): 11.3%
- O = Life span- extending scores in worms (C. elegans): 1 (1 for lifespan extension observed in 2 trials)
- M = Lifespan-extending scores in worms (C. elegans): 1 (1 for lifespan extension observed in 2 trials)
- activity at 10 µM [3, 16]: 115%
- activity at 10 µM [3, 17]: 130%
- activity at 10 µM [3, 18]: 178%
- activity at 10 µM [3, 19]: 108%
- activity at 10 µM [3, 20]: 544%
- P = Potential DNA-damaging ([3]; human, 24 h): 0
- R = Potential DNA damaging ([3]; human, 24 h): 0

Compound: COc1ccc(C(=O)/C=C/c2cccc(Cl)c2)c(OC)c1 [Gr-4C]
- L = PARP inhibition (human PARP1): 0
- fold induction at 10 µM (WI-38 cells [1]; [4]): 1.07
- fold induction at 10 µM (WI-38 cells [1]; [5]): 1.19
- Assay 4: H2O2- & Cd-resistant (WI-38 cells [1]): YES
- Assay 2: Cadmium-resistant (WI-38 cells [1]): YES
- A = Cadmium resistant (WI-38 cells [1]; [7]): 0
- A = Cadmium resistant (WI-38 cells [1]; summary score): 1
- C = H2O2- & Cd-resistant (WI-38 cells [1]; summary score): 1
- fold induction at 10 µM (WI-38 cells [2]; [8]): 1.24
- fold induction at 10 µM (WI-38 cells [2]; [9]): 1.61
- Assay 3: MMS-resistant (WI-38 cells [2]): YES
- Assay 5: Triple resistant (WI-38 cells [2]): YES
- B = MMS resistant (WI-38 cells [2]; [7]): 0
- B = MMS resistant (WI-38 cells [2]; summary score): 1
- D = Triple resistant (WI-38 cells [2]; summary score): 2
- ILS at 60 µM (C. elegans; [10]): -14.9%
- ILS at 60 µM (C. elegans; [11]): 3.1%
- ILS at 60 µM (C. elegans; [12]): -1.7%
- ILS at 66 µM (C. elegans; [13]): -14.9%
- ILS at 66 µM (C. elegans; [14]): 3.1%
- ILS at 66 µM (C. elegans; [15]): -1.7%
- O = Life span- extending scores in worms (C. elegans): 0
- M = Lifespan-extending scores in worms (C. elegans): 0
- activity at 10 µM [3, 16]: 108%
- activity at 10 µM [3, 17]: 135%
- activity at 10 µM [3, 18]: 150%
- activity at 10 µM [3, 19]: 179%
- activity at 10 µM [3, 20]: 444%
- R = Potential DNA damaging [3, 21]: 0
- P = Potential DNA-damaging ([3]; summary score): 0

Compound: COc1ccc(C(=O)/C=C/c2ccc(F)cc2)c(OC)c1 [Gr-4A]
- L = PARP inhibition (human PARP1): 0
- CdCl2-resistant (WI-38 cells [1]): YES
- H2O2- & CdCl2-resistant (WI-38 cells [1]): YES
- fold induction at 10 µM (WI-38 cells [1]; [4]): 1.98
- fold induction at 10 µM (WI-38 cells [1]; [5]): 1.66
- CdCl2-resistant (WI-38 cells [1]; WI-38 cells, 10 μM): YES
- H2O2- & CdCl2-resistant (WI-38 cells [1]; [6]): YES
- Assay 4: H2O2- & Cd-resistant (WI-38 cells [1]): YES
- Assay 2: Cadmium-resistant (WI-38 cells [1]): YES
- A = Cadmium resistant (WI-38 cells [1]; [7]): 1
- A = Cadmium resistant (WI-38 cells [1]; summary score): 1
- C = H2O2- & Cd-resistant (WI-38 cells [1]; summary score): 1
- fold induction at 10 µM (WI-38 cells [2]; [8]): 0.95
- fold induction at 10 µM (WI-38 cells [2]; [9]): 1.52
- B = MMS resistant (WI-38 cells [2]; [7]): 0
- B = MMS resistant (WI-38 cells [2]; summary score): 0
- D = Triple resistant (WI-38 cells [2]; summary score): 0
- ILS at 60 µM (C. elegans; [10]): -21.4%
- ILS at 60 µM (C. elegans; [11]): 1.2%
- ILS at 60 µM (C. elegans; [12]): -0.1%
- ILS at 66 µM (C. elegans; [13]): -21.4%
- ILS at 66 µM (C. elegans; [14]): 1.2%
- ILS at 66 µM (C. elegans; [15]): -0.1%
- O = Life span- extending scores in worms (C. elegans): 0
- M = Lifespan-extending scores in worms (C. elegans): 0
- activity at 10 µM [3, 16]: 80.2%
- activity at 10 µM [3, 17]: 75%
- activity at 10 µM [3, 18]: 105%
- activity at 10 µM [3, 19]: 155%
- activity at 10 µM [3, 20]: 287%
- R = Potential DNA damaging [3, 21]: 0
- P = Potential DNA-damaging ([3]; summary score): 0
